Data reported in patent US4724238A, “Method of treating inflammatory diseases with labdan derivatives” (Hoechst Aktiengesellschaft, priority 1985, dated 1988).

Legend:
[1] = test system: Adjuvant-induced arthritis in rats; test: Adjuvant-induced arthritis test in rats, developing arthritis; assay type: in vivo, rat (Charles Foster, female); conditions: i.p., once daily for 21 days
[2] = test system: Acetic acid induced writhing in mice; test: Analgesic activity, acetic acid writhing test; assay type: in vivo, mouse (male); conditions: Mus musculus, sc, 30 minutes before 0.2 ml of 3% acetic acid i.p.; observed 15 minutes
Procedure: Analgesic activity--Acetic acid writhing test
A test compound suspended in 0.5% carboxy methyl cellulose is given subcutaneously to the male mice (20-25 g). The control group received only the 0.5% CMC. After 30 minutes, 0.2 ml of 3% acetic acid is administered intraperitoneally. The animals are observed for 15 minutes for a characteristic stretching or writhing syndrome which is indicative of pain induced by acetic acid. Six animals are used per group.
In the test group, mice which show less than or equal to 50 percent of the mean control writhing value are considered to be protected. (Blumberg et al. Proc. Soc. Exp. Biol. Med., 118, 763-766, 1965). The percent analgesic activity is calculated as follows: [formula] The ED50 value is calculated from the dose response curve.

rat ear inflammation = test: Croton oil-induced local inflammation test in rats (topical); assay type: in vivo, rat (Charles Foster's strain); conditions: applied with the irritant, 4 hours
Procedure: (b) Croton oil-induced local inflammation test in rats A volume of 0.05 ml of croton oil irritant (2.0 ml pyridine, 0.5 ml distilled water+7.4 ml diethyl ether+0.1 ml croton oil) is applied under ether anaesthesia to the anterior and posterior sides of the ear of rats weighing 45 to 60 g (Charles Foster's strain) with the help of a micro glass syringe and a blunt 20 gauge needle/Tonelli G., Thibault L. and Ringer I, Endocrinology 77, 625-634 (1965)/. The right untreated ear serves as control. The drug treated group receives different concentrations of compounds along with the irritant. Four hours later the animals are sacrificed. The ears are removed and punched with an 8 mm diameter cork borer. The punched portions are immediately weighed. The increase in the weight of ear is determined by the difference in the weight between the left and right ear. The topical anti-inflammatory activity of the test compound is expressed as the percent inhibition of the increase in ear weight of the irritant treated ear according to the following formula [formula] The ED50 value is calculated from the dose response curve. Six animals are used per group.

[3] = test system: Adjuvant-induced arthritis in rats; test: Adjuvant-induced arthritis test in rats, established arthritis; assay type: in vivo, rat (Charles Foster, female); conditions: i.p., once daily from day 15 to day 21
rat paw oedema = test: Acute carrageenin-induced rat paw oedema test (systemic); assay type: in vivo, rat (Charles Foster, male); conditions: ip, paw volume at 3 and 6 hours after carrageenin
Procedure: (a) Acute carrageenin-induced rat paw oedema test Charles Foster male rats (120-150 g) are fasted for 18 hrs. with water ad libitum. The test compound suspended in 0.5% carboxymethyl cellulose (CMC) is given intraperitoneally. The control group receives 0.5% CMC suspension. 0.05 ml of the 0.5% carrageenin suspension is injected subcutaneously into the planter region of the left hind paw. The paw volume is determined before carrageenin injection and at 3 hours and 6 hours after injection using a Maclab volume differential meter. The percentage decrease in paw volume is calculated with the following formula: [formula] The ED50 value is calculated from the dose-response curve. Six animals are used per group.

C=C[C@@]1(C)CC(=O)[C@@H]2[C@@]3(C)CCCC(C)(C)[C@@H]3[C@H](O)[C@H](OC(C)=O)[C@@]2(C)O1 [1,9-Dideoxyforskolin, 7β-acetoxy-1,9-dideoxy-8,13-epoxy-6β-hydroxy-labd-14-en-11-one]
% inhibition of paw volume, developing arthritis ([1]; 3.0 mg/kg): 62% | ED50 [2]: 9 mg/kg | ED50, croton oil induced rat ear inflammation (rat ear inflammation): 1.6 mg/ear | % inhibition of paw volume, established arthritis ([3]; 3.0 mg/kg): 30% | ED50 (rat paw oedema): 2.2 mg/kg

C=C[C@@]1(C)CC(=O)[C@]2(O)[C@@]3(C)[C@@H](O)CCC(C)(C)[C@@H]3[C@H](O)[C@H](OC(C)=O)[C@@]2(C)O1 [Forskolin, 7β-acetoxy-8,13-epoxy-1α,6β,9α-trihydroxy-labd-14-en-11one]
% inhibition of paw volume, developing arthritis ([1]; 2.5 mg/kg): 23% | ED50, croton oil induced rat ear inflammation (rat ear inflammation): 1.15 mg/ear | % inhibition of paw volume, established arthritis ([3]; 2.4 mg/kg): 27% | ED50 (rat paw oedema): 4.8 mg/kg
